Data set [1] deals with NMRI mice. The experiment in a line: Mouse Forced Swim Test (mFST). As to conditions: compound alone, 0.3, 1, 3, 10 mg/kg s.c., 30 minutes pre-treatment. Type of data set: in vivo. On the procedure:
The Forced Swim Test therefore is considered predictive of a potential antidepressant pharmacological effect.
Female NMRI mice (of 20-25 g) are habituated to the laboratory (a 12 hour light/dark cycle) for at least 16 hours before the experiment.
30 minutes after s.c. injection of either vehicle or drug, the mouse is placed in a glass beaker (d=16 cm; 5000 ml) with water (24° C.) up till 10 cm from the top edge. For the subsequent 6 minutes the duration of immobility defined as swim speed less than 2.5 cm/minute, and forced swim distance defined as distance swum with a speed above 5 cm/minute, is recorded. There are 8 mice in each group.
The activity of the mouse is tracked by the View Point system for the measurement of distance, immobility, and speed.
Time of immobility ±SEM (seconds) and forced swim distance ±SEM (cm) in 15 seconds time intervals are presented and plotted in SigmaPlot. Mean total immobility time and total swim distance in the time interval 60-360 seconds are calculated and presented for each group. The dose showing significant difference from the vehicle treated group is reported as the Minimal Effective Dose (MED s.c. mg/kg).

The test system of data set [2] is NMRI mice. Conditions: systemic administration; mice in a small water pool; background statement; cited from earlier work.

As a reminder, the melting point is the temperature, or range, at which the solid turns liquid.

`Clc1cncc(N2CCNCC2)c1.O=C(O)/C=C/C(=O)O` returned a melting point of 195 to 196 °C.
Same read-out and setting: the result for `CN1C2CCC1CN(c1ccccc1)CC2.O=C(O)/C=C/C(=O)O` (racemic) reads 143.9 °C; that for `Ic1ccc(N2CCNCC2)nn1.O=C(O)/C=C/C(=O)O`, 187 to 190 °C; that for `O=C(O)/C=C/C(=O)O.c1ccc2c(c1)ncn2-c1ccc(N2CCNCC2)nn1`, 217 °C.
Consider `Cl.Cl.Clc1ccc(N2CCNCC2)cn1` [Compound 1C3, 1-(6-Chloro-3-pyridyl)-piperazine Dihydrochloric Acid Salt], for which the forced swimming result in the data set on NMRI mice [1] is “did not affect forced swimming”.
Turning to `CNCCCN1c2ccccc2CCc2ccccc21` [Desipramine], the forced swim distance entry with NMRI mice [2] is on record as “induces an increase in the forced swim distance”.

The values above are taken from US7307087B2, “Treatment of affective disorders by the combined action of a nicotinic receptor agonist and a monoaminergic substance” (Neurosearch A/S, priority 2000, dated 2007).
